{"source": "paper PMC11864979", "about": "“First-in-class ultralong-target-residence-time p38α inhibitors as a mitosis-targeted therapy for colorectal cancer” (Nature Cancer, 2025)", "test_in_all_cases": "selectivity profiling in a panel of 340 wild-type kinases (Reaction Biology Europe)", "type_in_all_cases": "binding", "key": {"340 wild-type kinases [1]": {"target": "T1, 340 wild-type kinases (Homo sapiens, UniProt Q9NYV4)", "T1 construct": "purchased Reaction Biology Europe"}, "340 wild-type kinases [2]": {"target": "T2, 340 wild-type kinases (Homo sapiens, UniProt O14965)", "T2 construct": "purchased Reaction Biology Europe", "T2 sequence (O14965 1-403)": "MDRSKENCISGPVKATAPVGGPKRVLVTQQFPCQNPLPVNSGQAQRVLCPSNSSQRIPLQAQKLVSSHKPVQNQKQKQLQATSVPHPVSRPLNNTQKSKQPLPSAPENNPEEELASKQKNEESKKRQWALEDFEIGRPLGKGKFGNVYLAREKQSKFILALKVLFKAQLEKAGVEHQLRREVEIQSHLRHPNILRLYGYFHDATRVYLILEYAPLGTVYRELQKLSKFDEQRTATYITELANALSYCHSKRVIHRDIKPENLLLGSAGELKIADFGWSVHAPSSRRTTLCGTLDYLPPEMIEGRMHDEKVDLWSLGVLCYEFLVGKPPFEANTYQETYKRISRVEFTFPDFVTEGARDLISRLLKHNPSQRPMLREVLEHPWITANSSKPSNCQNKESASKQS"}, "340 wild-type kinases [3]": {"target": "T3, 340 wild-type kinases (Homo sapiens, UniProt O60285)", "T3 construct": "purchased Reaction Biology Europe", "T3 sequence (O60285 1-661)": "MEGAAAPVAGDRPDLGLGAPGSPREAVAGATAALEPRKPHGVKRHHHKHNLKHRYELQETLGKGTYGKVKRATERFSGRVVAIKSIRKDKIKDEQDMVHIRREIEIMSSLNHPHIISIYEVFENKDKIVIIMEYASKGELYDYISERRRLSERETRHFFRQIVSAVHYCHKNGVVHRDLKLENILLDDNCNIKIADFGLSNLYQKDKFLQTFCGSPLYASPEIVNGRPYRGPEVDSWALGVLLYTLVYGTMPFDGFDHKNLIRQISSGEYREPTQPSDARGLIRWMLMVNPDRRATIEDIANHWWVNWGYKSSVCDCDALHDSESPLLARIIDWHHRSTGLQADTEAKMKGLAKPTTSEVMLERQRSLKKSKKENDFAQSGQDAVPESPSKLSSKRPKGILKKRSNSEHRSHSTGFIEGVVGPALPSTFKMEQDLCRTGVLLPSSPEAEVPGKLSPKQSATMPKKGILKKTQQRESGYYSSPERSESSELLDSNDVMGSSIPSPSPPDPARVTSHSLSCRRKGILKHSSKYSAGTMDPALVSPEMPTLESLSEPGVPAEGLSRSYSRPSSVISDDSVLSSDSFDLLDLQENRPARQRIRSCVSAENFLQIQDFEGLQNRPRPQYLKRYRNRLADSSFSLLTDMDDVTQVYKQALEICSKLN"}, "340 wild-type kinases [4]": {"target": "T4, 340 wild-type kinases (Homo sapiens, UniProt Q07912)", "T4 construct": "purchased Reaction Biology Europe"}, "340 wild-type kinases [5]": {"target": "T5, 340 wild-type kinases (Homo sapiens, UniProt Q13555)", "T5 construct": "purchased Reaction Biology Europe", "T5 sequence (Q13555 whole entry)": "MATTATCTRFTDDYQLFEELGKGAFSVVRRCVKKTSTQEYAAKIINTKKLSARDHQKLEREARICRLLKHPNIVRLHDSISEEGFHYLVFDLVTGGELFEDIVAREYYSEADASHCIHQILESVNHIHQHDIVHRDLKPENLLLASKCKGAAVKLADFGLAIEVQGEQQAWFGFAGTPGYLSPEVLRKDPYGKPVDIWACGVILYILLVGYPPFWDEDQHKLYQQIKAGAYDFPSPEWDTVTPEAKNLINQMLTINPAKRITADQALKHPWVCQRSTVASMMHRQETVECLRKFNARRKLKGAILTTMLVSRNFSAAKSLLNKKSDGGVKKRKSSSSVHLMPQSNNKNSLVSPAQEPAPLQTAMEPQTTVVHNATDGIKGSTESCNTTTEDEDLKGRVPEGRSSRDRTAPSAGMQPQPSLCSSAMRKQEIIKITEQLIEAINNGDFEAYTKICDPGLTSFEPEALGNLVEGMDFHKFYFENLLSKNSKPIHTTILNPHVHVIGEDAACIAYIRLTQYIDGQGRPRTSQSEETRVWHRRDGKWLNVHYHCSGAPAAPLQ"}, "340 wild-type kinases [6]": {"target": "T6, 340 wild-type kinases (Homo sapiens, UniProt O96013)", "T6 construct": "purchased Reaction Biology Europe", "T6 sequence (O96013 whole entry)": "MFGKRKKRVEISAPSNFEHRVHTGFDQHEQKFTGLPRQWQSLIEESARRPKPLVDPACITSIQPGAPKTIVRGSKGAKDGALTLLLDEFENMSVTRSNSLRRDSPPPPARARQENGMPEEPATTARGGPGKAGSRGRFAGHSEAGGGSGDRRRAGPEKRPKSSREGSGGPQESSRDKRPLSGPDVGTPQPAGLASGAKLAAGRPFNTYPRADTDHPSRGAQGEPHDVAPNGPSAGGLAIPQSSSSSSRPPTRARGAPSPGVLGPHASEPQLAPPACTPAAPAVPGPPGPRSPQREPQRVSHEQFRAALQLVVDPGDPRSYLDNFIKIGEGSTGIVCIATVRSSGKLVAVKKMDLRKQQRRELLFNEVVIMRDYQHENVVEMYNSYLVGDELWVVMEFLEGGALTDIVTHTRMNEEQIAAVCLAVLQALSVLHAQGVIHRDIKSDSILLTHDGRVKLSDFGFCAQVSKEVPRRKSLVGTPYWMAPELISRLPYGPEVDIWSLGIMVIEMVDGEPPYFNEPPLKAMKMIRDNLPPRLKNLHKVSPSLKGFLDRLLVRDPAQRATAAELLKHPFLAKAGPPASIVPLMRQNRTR"}, "340 wild-type kinases [7]": {"target": "T7, 340 wild-type kinases (Homo sapiens, UniProt Q15746)", "T7 construct": "purchased Reaction Biology Europe", "T7 sequence (Q15746 whole entry)": "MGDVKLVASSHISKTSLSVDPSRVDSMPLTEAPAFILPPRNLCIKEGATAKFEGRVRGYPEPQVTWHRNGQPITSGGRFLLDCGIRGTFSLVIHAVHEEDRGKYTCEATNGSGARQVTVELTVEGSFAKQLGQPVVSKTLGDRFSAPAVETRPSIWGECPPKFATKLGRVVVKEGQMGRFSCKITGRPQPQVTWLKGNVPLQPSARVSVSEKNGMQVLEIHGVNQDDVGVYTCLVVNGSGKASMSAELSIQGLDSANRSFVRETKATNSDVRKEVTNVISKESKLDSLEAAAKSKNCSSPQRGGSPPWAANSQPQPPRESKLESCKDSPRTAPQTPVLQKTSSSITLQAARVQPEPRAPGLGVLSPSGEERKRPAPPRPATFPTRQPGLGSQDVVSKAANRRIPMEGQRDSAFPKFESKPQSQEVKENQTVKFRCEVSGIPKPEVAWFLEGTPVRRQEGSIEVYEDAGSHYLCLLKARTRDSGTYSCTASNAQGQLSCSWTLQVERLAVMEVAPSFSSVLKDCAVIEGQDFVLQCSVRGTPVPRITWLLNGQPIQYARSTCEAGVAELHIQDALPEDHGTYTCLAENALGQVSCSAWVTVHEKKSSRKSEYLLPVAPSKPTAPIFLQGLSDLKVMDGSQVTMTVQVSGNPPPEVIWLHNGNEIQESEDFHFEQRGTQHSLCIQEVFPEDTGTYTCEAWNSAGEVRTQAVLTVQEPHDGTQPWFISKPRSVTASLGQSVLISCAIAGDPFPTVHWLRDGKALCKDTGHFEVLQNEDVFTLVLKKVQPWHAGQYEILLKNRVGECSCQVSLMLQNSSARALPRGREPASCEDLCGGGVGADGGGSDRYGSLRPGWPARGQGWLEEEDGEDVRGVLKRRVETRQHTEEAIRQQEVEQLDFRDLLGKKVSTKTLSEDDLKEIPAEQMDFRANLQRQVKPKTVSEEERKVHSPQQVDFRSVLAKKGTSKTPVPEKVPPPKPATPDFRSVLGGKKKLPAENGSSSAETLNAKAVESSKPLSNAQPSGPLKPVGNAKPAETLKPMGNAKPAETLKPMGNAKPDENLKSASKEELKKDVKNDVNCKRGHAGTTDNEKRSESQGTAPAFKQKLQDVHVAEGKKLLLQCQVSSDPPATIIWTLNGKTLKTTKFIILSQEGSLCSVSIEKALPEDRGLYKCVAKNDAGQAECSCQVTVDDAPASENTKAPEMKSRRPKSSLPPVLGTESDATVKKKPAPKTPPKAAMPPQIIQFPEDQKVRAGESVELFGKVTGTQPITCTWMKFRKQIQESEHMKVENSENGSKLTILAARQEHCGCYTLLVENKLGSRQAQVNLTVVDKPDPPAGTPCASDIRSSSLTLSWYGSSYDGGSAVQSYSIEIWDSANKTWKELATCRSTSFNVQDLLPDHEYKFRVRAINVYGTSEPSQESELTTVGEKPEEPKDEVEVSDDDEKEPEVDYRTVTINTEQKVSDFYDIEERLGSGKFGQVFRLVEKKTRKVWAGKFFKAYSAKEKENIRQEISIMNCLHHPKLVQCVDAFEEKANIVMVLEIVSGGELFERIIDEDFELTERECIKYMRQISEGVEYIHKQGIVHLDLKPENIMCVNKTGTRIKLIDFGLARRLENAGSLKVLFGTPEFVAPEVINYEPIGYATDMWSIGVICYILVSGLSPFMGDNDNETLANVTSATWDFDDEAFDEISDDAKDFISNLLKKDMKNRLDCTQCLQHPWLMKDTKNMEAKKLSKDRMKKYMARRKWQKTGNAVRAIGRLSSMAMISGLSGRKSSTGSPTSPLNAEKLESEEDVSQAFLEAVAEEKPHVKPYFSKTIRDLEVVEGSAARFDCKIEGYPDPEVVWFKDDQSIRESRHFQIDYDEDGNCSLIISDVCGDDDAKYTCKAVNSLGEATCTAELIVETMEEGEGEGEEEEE"}, "340 wild-type kinases [8]": {"target": "T8, 340 wild-type kinases (Homo sapiens, UniProt Q9NR20)", "T8 construct": "purchased Reaction Biology Europe", "T8 sequence (Q9NR20 1-520)": "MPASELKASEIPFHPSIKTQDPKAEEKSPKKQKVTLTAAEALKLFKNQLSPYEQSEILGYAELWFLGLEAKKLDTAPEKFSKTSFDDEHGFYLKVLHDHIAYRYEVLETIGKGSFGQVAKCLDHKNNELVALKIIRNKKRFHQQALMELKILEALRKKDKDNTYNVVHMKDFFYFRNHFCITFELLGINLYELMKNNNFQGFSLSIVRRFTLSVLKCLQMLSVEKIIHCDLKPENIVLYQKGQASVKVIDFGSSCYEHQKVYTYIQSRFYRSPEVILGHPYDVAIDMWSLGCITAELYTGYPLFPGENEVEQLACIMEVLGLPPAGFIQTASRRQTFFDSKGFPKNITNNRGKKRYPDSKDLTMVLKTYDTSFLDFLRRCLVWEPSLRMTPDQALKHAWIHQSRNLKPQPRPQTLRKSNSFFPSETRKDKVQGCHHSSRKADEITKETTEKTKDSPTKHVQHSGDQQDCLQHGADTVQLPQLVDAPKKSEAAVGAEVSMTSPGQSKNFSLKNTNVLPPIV"}, "340 wild-type kinases [9]": {"target": "T9, 340 wild-type kinases (Homo sapiens, UniProt P51451)", "T9 construct": "purchased Reaction Biology Europe", "T9 sequence (P51451 whole entry)": "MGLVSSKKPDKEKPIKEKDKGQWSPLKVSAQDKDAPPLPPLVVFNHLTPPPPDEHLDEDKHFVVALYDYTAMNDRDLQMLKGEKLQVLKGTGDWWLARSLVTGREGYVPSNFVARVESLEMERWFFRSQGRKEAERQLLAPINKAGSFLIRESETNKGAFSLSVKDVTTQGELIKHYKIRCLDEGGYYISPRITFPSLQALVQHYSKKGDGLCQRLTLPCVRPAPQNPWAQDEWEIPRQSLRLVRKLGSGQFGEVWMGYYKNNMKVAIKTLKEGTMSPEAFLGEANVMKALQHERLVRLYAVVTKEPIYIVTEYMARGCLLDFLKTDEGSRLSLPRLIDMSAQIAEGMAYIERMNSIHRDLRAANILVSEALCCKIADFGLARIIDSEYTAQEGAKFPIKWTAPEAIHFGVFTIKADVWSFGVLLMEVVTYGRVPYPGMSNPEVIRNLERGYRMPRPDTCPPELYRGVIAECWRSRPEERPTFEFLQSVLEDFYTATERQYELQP"}, "340 wild-type kinases [10]": {"target": "T10, 340 wild-type kinases (Homo sapiens, UniProt Q9NYY3)", "T10 construct": "purchased Reaction Biology Europe", "T10 sequence (Q9NYY3 whole entry)": "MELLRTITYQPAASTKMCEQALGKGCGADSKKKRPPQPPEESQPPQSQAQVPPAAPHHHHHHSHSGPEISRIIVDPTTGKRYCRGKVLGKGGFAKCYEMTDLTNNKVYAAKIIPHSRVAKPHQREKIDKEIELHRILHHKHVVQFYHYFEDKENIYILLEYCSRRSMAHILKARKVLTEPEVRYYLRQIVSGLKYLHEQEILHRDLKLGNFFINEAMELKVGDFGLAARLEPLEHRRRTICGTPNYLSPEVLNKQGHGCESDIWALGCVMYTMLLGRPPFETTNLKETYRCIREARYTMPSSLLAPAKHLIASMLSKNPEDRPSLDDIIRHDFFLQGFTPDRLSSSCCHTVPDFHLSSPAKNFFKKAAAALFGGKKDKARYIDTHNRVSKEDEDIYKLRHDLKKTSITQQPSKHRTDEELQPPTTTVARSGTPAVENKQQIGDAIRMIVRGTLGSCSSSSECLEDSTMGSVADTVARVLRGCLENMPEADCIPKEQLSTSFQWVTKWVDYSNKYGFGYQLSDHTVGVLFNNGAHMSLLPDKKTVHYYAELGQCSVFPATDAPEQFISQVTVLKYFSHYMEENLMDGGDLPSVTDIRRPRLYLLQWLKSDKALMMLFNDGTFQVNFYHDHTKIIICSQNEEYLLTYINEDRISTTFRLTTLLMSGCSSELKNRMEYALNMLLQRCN"}, "[11]": {"settings": "read-out: DYRK4 residual activity"}}, "note": "Where two headings read alike, the source gives them in different places.", "data": [{"smiles": "CNC(=O)c1ccc2c(c1)C(=O)c1ccc(Nc3ccc(F)c(NC(=O)C4CC4)c3)cc1CC2", "note": "[Compound 2015]", "values": [{"measurement": "remaining activity at 0.2 µM", "setting": "340 wild-type kinases [1]; 0.2 µM 2015, read-out: CDK12/CycK residual activity", "value": 112, "unit": "%"}, {"measurement": "remaining activity at 1 µM", "setting": "340 wild-type kinases [1]; 1 µM 2015, read-out: CDK12/CycK residual activity", "value": 103, "unit": "%"}, {"measurement": "remaining activity at 0.2 µM", "setting": "340 wild-type kinases [1]; CDK12/CycK, 0.2 µM, read-out: residual activity", "value": 112, "unit": "%"}, {"measurement": "remaining activity at 1 µM", "setting": "340 wild-type kinases [1]; CDK12/CycK, 1 µM, read-out: residual activity", "value": 103, "unit": "%"}, {"measurement": "remaining activity at 0.2 µM", "setting": "340 wild-type kinases [2]; 0.2 µM 2015, read-out: AuroraA residual activity", "value": 98.6, "unit": "%"}, {"measurement": "remaining activity at 1 µM", "setting": "340 wild-type kinases [2]; 1 µM 2015, read-out: AuroraA residual activity", "value": 103, "unit": "%"}, {"measurement": "remaining activity at 0.2 µM", "setting": "340 wild-type kinases [2]; AuroraA, 0.2 µM, read-out: residual activity", "value": 98.5, "unit": "%"}, {"measurement": "remaining activity at 1 µM", "setting": "340 wild-type kinases [2]; AuroraA, 1 µM, read-out: residual activity", "value": 103, "unit": "%"}, {"measurement": "remaining activity at 0.2 µM", "setting": "340 wild-type kinases [3]; 0.2 µM 2015, read-out: ARK5 residual activity", "value": 96.7, "unit": "%"}, {"measurement": "remaining activity at 1 µM", "setting": "340 wild-type kinases [3]; 1 µM 2015, read-out: ARK5 residual activity", "value": 98.5, "unit": "%"}, {"measurement": "remaining activity at 0.2 µM", "setting": "340 wild-type kinases [3]; ARK5, 0.2 µM, read-out: residual activity", "value": 96.7, "unit": "%"}, {"measurement": "remaining activity at 1 µM", "setting": "340 wild-type kinases [3]; ARK5, 1 µM, read-out: residual activity", "value": 98.5, "unit": "%"}, {"measurement": "remaining activity at 0.2 µM", "setting": "340 wild-type kinases [4]; 0.2 µM 2015, read-out: ACK1 residual activity", "value": 110, "unit": "%"}, {"measurement": "remaining activity at 1 µM", "setting": "340 wild-type kinases [4]; 1 µM 2015, read-out: ACK1 residual activity", "value": 108, "unit": "%"}, {"measurement": "remaining activity at 0.2 µM", "setting": "340 wild-type kinases [4]; ACK1, 0.2 µM, read-out: residual activity", "value": 110, "unit": "%"}, {"measurement": "remaining activity at 1 µM", "setting": "340 wild-type kinases [4]; ACK1, 1 µM, read-out: residual activity", "value": 108, "unit": "%"}, {"measurement": "remaining activity at 0.2 µM", "setting": "340 wild-type kinases [5]; 0.2 µM 2015, read-out: CAMK2G residual activity", "value": 99, "unit": "%"}, {"measurement": "remaining activity at 1 µM", "setting": "340 wild-type kinases [5]; 1 µM 2015, read-out: CAMK2G residual activity", "value": 90.5, "unit": "%"}, {"measurement": "remaining activity at 0.2 µM", "setting": "340 wild-type kinases [5]; CAMK2G, 0.2 µM, read-out: residual activity", "value": 99, "unit": "%"}, {"measurement": "remaining activity at 1 µM", "setting": "340 wild-type kinases [5]; CAMK2G, 1 µM, read-out: residual activity", "value": 90.5, "unit": "%"}, {"measurement": "remaining activity at 0.2 µM", "setting": "340 wild-type kinases [6]; 0.2 µM 2015, read-out: PAK4 residual activity", "value": 92.5, "unit": "%"}, {"measurement": "remaining activity at 1 µM", "setting": "340 wild-type kinases [6]; 1 µM 2015, read-out: PAK4 residual activity", "value": 85.8, "unit": "%"}, {"measurement": "remaining activity at 0.2 µM", "setting": "340 wild-type kinases [6]; PAK4, 0.2 µM, read-out: residual activity", "value": 92.5, "unit": "%"}, {"measurement": "remaining activity at 1 µM", "setting": "340 wild-type kinases [6]; PAK4, 1 µM, read-out: residual activity", "value": 85.8, "unit": "%"}, {"measurement": "remaining activity at 0.2 µM", "setting": "340 wild-type kinases [7]; 0.2 µM 2015, read-out: MYLK residual activity", "value": 109, "unit": "%"}, {"measurement": "remaining activity at 1 µM", "setting": "340 wild-type kinases [7]; 1 µM 2015, read-out: MYLK residual activity", "value": 97.7, "unit": "%"}, {"measurement": "remaining activity at 0.2 µM", "setting": "340 wild-type kinases [7]; MYLK, 0.2 µM, read-out: residual activity", "value": 109, "unit": "%"}, {"measurement": "remaining activity at 1 µM", "setting": "340 wild-type kinases [7]; MYLK, 1 µM, read-out: residual activity", "value": 97.7, "unit": "%"}, {"measurement": "remaining activity at 0.2 µM", "setting": "340 wild-type kinases [8]; [11]", "value": 108, "unit": "%"}, {"measurement": "remaining activity at 1 µM", "setting": "340 wild-type kinases [8]; [11]", "value": 97.1, "unit": "%"}, {"measurement": "remaining activity at 0.2 µM", "setting": "340 wild-type kinases [8]; read-out: residual activity", "value": 108, "unit": "%"}, {"measurement": "remaining activity at 1 µM", "setting": "340 wild-type kinases [8]; read-out: residual activity", "value": 97.1, "unit": "%"}, {"measurement": "remaining activity at 0.2 µM", "setting": "340 wild-type kinases [9]; 0.2 µM 2015, read-out: BLK residual activity", "value": 107, "unit": "%"}, {"measurement": "remaining activity at 1 µM", "setting": "340 wild-type kinases [9]; 1 µM 2015, read-out: BLK residual activity", "value": 104, "unit": "%"}, {"measurement": "remaining activity at 0.2 µM", "setting": "340 wild-type kinases [9]; BLK, 0.2 µM, read-out: residual activity", "value": 107, "unit": "%"}, {"measurement": "remaining activity at 1 µM", "setting": "340 wild-type kinases [9]; BLK, 1 µM, read-out: residual activity", "value": 104, "unit": "%"}, {"measurement": "remaining activity at 0.2 µM", "setting": "340 wild-type kinases [10]; 0.2 µM 2015, read-out: SNK residual activity", "value": 103, "unit": "%"}, {"measurement": "remaining activity at 1 µM", "setting": "340 wild-type kinases [10]; 1 µM 2015, read-out: SNK residual activity", "value": 97.3, "unit": "%"}, {"measurement": "remaining activity at 0.2 µM", "setting": "340 wild-type kinases [10]; SNK, 0.2 µM, read-out: residual activity", "value": 103, "unit": "%"}, {"measurement": "remaining activity at 1 µM", "setting": "340 wild-type kinases [10]; SNK, 1 µM, read-out: residual activity", "value": 97.3, "unit": "%"}]}]}
